Measured values published in patent US11839613B2, “Pyrimidine derivatives as PGE2 receptor modulators” (IDORSIA PHARMACEUTICALS LTD, priority 2017, dated 2023).

Key:
EP2 = EP2 (Homo sapiens (Human), UniProt P43116); assay: hEP2 cAMP assay (SF295 glioblastoma cells, HTRF cAMP); type: cell-based; conditions: antagonistic activity
Excerpt: (§1) Human tumor cell lines expressing endogenously either EP4 or EP2 are used and cAMP accumulation in cells upon PGE2 stimulation is monitored. SF295 glioblastoma cells express high endogenous EP2 and no EP4, whereas BT549 breast cancer cells, express high endogenous EP4 levels and very low EP2 levels.
(§2) As a detection method for cAMP the HTRF (homogeneous time resolved fluorescence) Cisbio kit (HTRF cAMP dynamic 2 kit 20'000 tests Cisbio Cat. #62AM4PEC) was used, which is based on a competitive immunoassay using a Cryptate-labeled anti-cAMP antibody and d2-labeled cAMP. Native cAMP produced by cells or unlabeled cAMP (for the standard curve) compete with exogenously added d2-labeled cAMP (acceptor) for binding to monoclonal anti-cAMP-Eu3+Cryptate (donor). A FRET signal (Fluorescence Resonance Energy Transfer) is obtained only if the labeled anti-cAMP antibody binds the d2 labelled cAMP, thus the specific signal (i.e. energy transfer) is inversely proportional to the concentration of cAMP in the standard or sample.
(§3) Cells are counted washed and resuspended in assay buffer (AB; HBSS, 20 mM HEPES, 0.2% BSA; 2 mM IBMX).
Plate is pre-incubated 45 minutes at RT. […] Plate is incubated 30 minutes at RT.

EP4 = EP4 (Homo sapiens (Human), UniProt P35408); assay: hEP4 cAMP assay (BT549 breast cancer cells, HTRF cAMP); type: cell-based; conditions: antagonistic activity, PGE2 6 nM
Chain of EP4 (P35408 whole entry): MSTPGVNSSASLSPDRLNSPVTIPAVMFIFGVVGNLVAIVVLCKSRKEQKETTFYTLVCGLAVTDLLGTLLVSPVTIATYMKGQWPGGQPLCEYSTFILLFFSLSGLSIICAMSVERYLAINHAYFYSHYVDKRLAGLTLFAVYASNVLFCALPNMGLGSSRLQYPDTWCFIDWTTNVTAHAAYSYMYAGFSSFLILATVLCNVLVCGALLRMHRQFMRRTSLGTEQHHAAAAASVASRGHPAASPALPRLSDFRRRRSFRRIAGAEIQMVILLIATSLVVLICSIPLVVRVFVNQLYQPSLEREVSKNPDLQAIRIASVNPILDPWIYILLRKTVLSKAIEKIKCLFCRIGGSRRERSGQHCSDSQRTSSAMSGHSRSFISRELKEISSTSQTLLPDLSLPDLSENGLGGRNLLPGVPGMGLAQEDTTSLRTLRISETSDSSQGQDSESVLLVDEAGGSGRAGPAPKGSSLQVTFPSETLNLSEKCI
Excerpt: as §1, §2, §3
Plate is pre-incubated 45 minutes at RT. Subsequently, 2.5 microliters of PGE2 (final conc. 6 nM) are transferred into the assay plate. Plate is incubated 30 minutes at RT.

PTGER2 (EP2) = PTGER2 (EP2) (Homo sapiens (Human), UniProt P43116); assay: hEP2 b-arrestin assay (PathHunter HEK 293 PTGER2 b-arrestin cells); type: cell-based; conditions: antagonistic activity, beta-arrestin assay; read-out: hEP2 b-arr IC50
Chain of PTGER2 (EP2) (P43116 whole entry): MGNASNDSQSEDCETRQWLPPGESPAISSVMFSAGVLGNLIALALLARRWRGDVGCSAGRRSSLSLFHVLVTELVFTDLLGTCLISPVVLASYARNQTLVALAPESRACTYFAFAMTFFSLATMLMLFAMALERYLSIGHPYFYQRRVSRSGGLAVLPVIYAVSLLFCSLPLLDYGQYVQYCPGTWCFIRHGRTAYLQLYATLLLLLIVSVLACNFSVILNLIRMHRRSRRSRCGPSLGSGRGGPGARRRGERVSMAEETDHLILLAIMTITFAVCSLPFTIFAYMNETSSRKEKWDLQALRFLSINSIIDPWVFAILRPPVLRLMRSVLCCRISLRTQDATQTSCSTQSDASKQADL
Method: Plate is pre-incubated 15 minutes at 37° C. Then five microliters of PGE2 (final conc. 5 μM) are transferred into the assay plate. Plate is incubated 120 minutes at 37° C.
(each concentration is measured in duplicate)

PTGER4 (EP4) = PTGER4 (EP4) (Homo sapiens (Human), UniProt P35408); assay: cell-based
Chain of PTGER4 (EP4) (P35408 whole entry): as the sequence (P35408 whole entry) above

Chain of EP2 (P43116 whole entry): as the sequence (P43116 whole entry) above

In the case of `CCOc1cc(-c2cc(NCCc3ccc4cc[nH]c4c3)ncn2)ccc1CC(=O)O` [Ex 271], the IC50 (EP2) is reported as 638 nM and the IC50 (EP4) is reported as 439 nM.

`COc1cc(-c2cc(NCCc3ccc4sccc4c3)ncn2)cc(OC)c1C(=O)O` [Ex 320, 4-[6-(2-Benzo[b]thiophen-5-yl-ethylamino)-pyrimidin-4-yl]-2,6-dimethoxy-benzoic acid] showed an IC50 (EP2) of 440 nM and an IC50 (EP4) of 766 nM.

Compound `O=C(O)c1ccc(-c2cc(NCCc3ccc4[nH]ccc4c3)ncn2)cc1OC1CCC1` [Ex 322, 2-Cyclobutoxy-4-{6-[2-(1H-indol-5-yl)-ethylamino]-pyrimidin-4-yl}-benzoic acid] has an IC50 (EP2) of 809 nM and an IC50 (EP4) of 814 nM.

`CCOc1cc(-c2cc(NCCc3cc4ccccc4cc3OC(F)F)ncn2)ccc1C(=O)O` [Ex 211] gave an IC50 (EP2) of 571 nM and an IC50 (EP4) of 253 nM.

In the case of `CCOc1cc2ccccc2cc1CCNc1cc(-c2ccc(OC(C)(C)C(=O)O)c(OCC)c2)ncn1` [Ex 245], the IC50 (EP2) is reported as 304 nM and the IC50 (EP4) is reported as 358 nM.

Compound `CCOc1cc(-c2cc(NCCc3cc4c(cc3OC)OCCO4)ncn2)ccc1OC(C)(C)C(=O)O` [Ex 313] has an IC50 (EP2) of 273 nM and an IC50 (EP4) of 691 nM.

`CCOc1cc(-c2cc(NCCc3cc4c(cnn4C)cc3OC)ncn2)ccc1OCC(=O)O` [Ex 298] gave an IC50 (EP2) of 716 nM and an IC50 (EP4) of 613 nM.

For `CCSc1cc(-c2cc(NCCc3ccc4sccc4c3)ncn2)ccc1C(=O)O` [Ex 222], the IC50 (EP2) was 279 nM and the IC50 (EP4) was 287 nM.

`NC(=O)c1ccc(-c2cc(NCCc3ccc4cc[nH]c4c3)ncn2)s1` [Ex 294, 5-{6-[2-(1H-Indol-6-yl)-ethylamino]-pyrimidin-4-yl}-thiophene-2-carboxylic acid amide] gave an IC50 (EP2) of 786 nM and an IC50 (EP4) of 561 nM.

Compound `Cc1c(CCNc2cc(-c3ccc(C(=O)O)c(OCCO)c3)ncn2)ccc2ccccc12` [Ex 234] has an IC50 (EP2) of 113 nM and an IC50 (EP4) of 325 nM.

For `CCOc1cc(-c2cc(NCCc3ccc4[nH]ccc4c3)ncn2)ccc1OCC(=O)O` [Ex 225, (2-Ethoxy-4-{6-[2-(1H-indol-5-yl)-ethylamino]-pyrimidin-4-yl}-phenoxy)-acetic acid], the IC50 (EP2) was 923 nM and the IC50 (EP4) was 289 nM.

In the case of `Oc1c(F)cc(-c2cc(NCCc3ccc4cc[nH]c4c3)ncn2)cc1F` [Ex 307, 2,6-Difluoro-4-{6-[2-(1H-indol-6-yl)-ethylamino]-pyrimidin-4-yl}-phenol], the IC50 (EP2) is reported as 677 nM and the IC50 (EP4) is reported as 658 nM.

Compound `O=C(O)c1ccc(-c2cc(NCCc3ccc4c(c3)OCCC4)ncn2)cc1OC1CCC1` [Ex 265, 4-[6-(2-Chroman-7-yl-ethylamino)-pyrimidin-4-yl]-2-cyclobutoxy-benzoic acid] has an IC50 (EP2) of 11400 nM and an IC50 (EP4) of 428 nM.

In the case of `CCOc1cc(-c2cc(NCCc3ccc4ccccc4c3C)ncn2)sc1CC(=O)OC` [Ex 316], the IC50 (EP2) is reported as 792 nM and the IC50 (EP4) is reported as 729 nM.

`c1nc(NCCc2ccc3cc[nH]c3c2)cc(-c2ccc3cc[nH]c3c2)n1` [Ex 267, [2-(1H-Indol-6-yl)-ethyl]-[6-(1H-indol-6-yl)-pyrimidin-4-yl]-amine] gave an IC50 (EP2) of 306 nM and an IC50 (EP4) of 431 nM.

Compound `COc1cc(-c2cc(NCCc3cc4cccnc4cc3F)ncn2)sc1C1(O)COC1` [Ex 283] has an IC50 (EP2) of 618 nM and an IC50 (EP4) of 502 nM.

With `CCOc1cc(-c2cc(NCCc3c(F)cc4ncccc4c3F)ncn2)ccc1C(=O)O` [Ex 304] the IC50 (EP2) was 408 nM and the IC50 (EP4) was 652 nM.

With `CCOc1cc(-c2cc(NCCc3cc(Cl)c4c(c3)OCCO4)ncn2)ccc1C(=O)O` [Ex 324] the IC50 (EP2) was 899 nM and the IC50 (EP4) was 858 nM.

`O=C(O)c1coc2cc(-c3cc(NCCc4ccc5sccc5c4)ncn3)ccc12` [Example 467, 6-[6-(2-Benzo[b]thiophen-5-yl-ethylamino)-pyrimidin-4-yl]-benzofuran-3-carboxylic acid] was tested, and the IC50 (PTGER2 (EP2)) was 417 nM, the IC50 (EP4; BT549 cells) was 155 nM and the IC50 (PTGER4 (EP4)) was 187 nM.

`COc1c(CCNc2cc(-c3ccc(CC(=O)O)c(CC(C)C)c3)ncn2)cc2ccsc2c1F` [Example 410, (4-{6-[2-(7-Fluoro-6-methoxy-benzo[b]thiophen-5-yl)-ethylamino]-pyrimidin-4-yl}-2-isobutyl-phenyl)-acetic acid] was tested, and the IC50 (PTGER2 (EP2)) was 153 nM and the IC50 (PTGER4 (EP4)) was 113 nM.

Compound `CCCc1cc(-c2cc(NCCc3cc(F)c4sccc4c3)ncn2)ccc1C(=O)NCC(C)(C)O` [Example 459, 4-{6-[2-(7-Fluoro-benzo[b]thiophen-5-yl)-ethylamino]-pyrimidin-4-yl}-N-(2-hydroxy-2-methyl-propyl)-2-propyl-benzamide] has an IC50 (PTGER2 (EP2)) of 683 nM and an IC50 (PTGER4 (EP4)) of 236 nM.

With `CCOc1cc2c(cc1CCNc1cc(-c3ccc(CC(=O)O)c(CC(C)C)c3)ncn1)OCCO2` [Example 412, (4-{6-[2-(7-Ethoxy-2,3-dihydro-benzo[1,4]dioxin-6-yl)-ethylamino]-pyrimidin-4-yl}-2-isobutyl-phenyl)-acetic acid] the IC50 (PTGER2 (EP2)) was 20 nM and the IC50 (PTGER4 (EP4)) was 40 nM.

`COc1cc(-c2cc(NCCc3c(OC)cc4c(c3C)OCCO4)ncn2)ccc1CC(=O)O` [Example 434, (2-Methoxy-4-{6-[2-(7-methoxy-5-methyl-2,3-dihydro-benzo[1,4]dioxin-6-yl)-ethylamino]-pyrimidin-4-yl}-phenyl)-acetic acid] was tested, and the IC50 (PTGER2 (EP2)) was 26 nM and the IC50 (PTGER4 (EP4)) was 58 nM.

`CCOc1cc(-c2cc(NCCc3ccc4sccc4c3C)ncn2)cc(F)c1CC(=O)O` [Example 372, (2-Ethoxy-6-fluoro-4-{6-[2-(4-methyl-benzo[b]thiophen-5-yl)-ethylamino]-pyrimidin-4-yl}-phenyl)-acetic acid] showed an IC50 (PTGER2 (EP2)) of 75 nM and an IC50 (PTGER4 (EP4)) of 195 nM.

With `CC(C)Cc1cc(-c2cc(NCCc3ccc4sccc4c3F)ncn2)ccc1C(=O)O` [Example 413, 4-{6-[2-(4-Fluoro-benzo[b]thiophen-5-yl)-ethylamino]-pyrimidin-4-yl}-2-isobutyl-benzoic acid] the IC50 (PTGER2 (EP2)) was 62 nM and the IC50 (PTGER4 (EP4)) was 41 nM.

Compound `CCCc1cc(-c2cc(NCCc3cc(F)c4sccc4c3)ncn2)ccc1C(=O)O` [Example 389, 4-{6-[2-(7-Fluoro-benzo[b]thiophen-5-yl)-ethylamino]-pyrimidin-4-yl}-2-propyl-benzoic acid] has an IC50 (PTGER2 (EP2)) of 51 nM and an IC50 (PTGER4 (EP4)) of 25 nM.

Compound `Cc1cc(-c2cc(NCCc3cc(F)c4sccc4c3)ncn2)ccc1C(=O)O` [Example 555, 4-{6-[2-(7-Fluoro-benzo[b]thiophen-5-yl)-ethylamino]-pyrimidin-4-yl}-2-methyl-benzoic acid] has an IC50 (PTGER2 (EP2)) of 887 nM and an IC50 (PTGER4 (EP4)) of 835 nM.

In the case of `COc1cc(-c2cc(NCCc3c(OC)cc4ccccc4c3C)ncn2)ccc1CC(=O)O` [Example 384, (2-Methoxy-4-{6-[2-(3-methoxy-1-methyl-naphthalen-2-yl)-ethylamino]-pyrimidin-4-yl}-phenyl)-acetic acid], the IC50 (PTGER2 (EP2)) is reported as 145 nM and the IC50 (PTGER4 (EP4)) is reported as 28 nM.

`CCOc1c(CC(=O)O)ccc(-c2cc(NCCc3cc(F)c4sccc4c3)ncn2)c1F` [Example 564, (2-Ethoxy-3-fluoro-4-{6-[2-(7-fluoro-benzo[b]thiophen-5-yl)-ethylamino]-pyrimidin-4-yl}-phenyl)-acetic acid] was tested, and the IC50 (PTGER2 (EP2)) was 817 nM and the IC50 (PTGER4 (EP4)) was 212 nM.

Compound `CCOc1cc(-c2cc(NCCc3cc4ccsc4cc3C)ncn2)cc(F)c1CC(=O)O` [Example 469, (2-Ethoxy-6-fluoro-4-{6-[2-(6-methyl-benzo[b]thiophen-5-yl)-ethylamino]-pyrimidin-4-yl}-phenyl)-acetic acid] has an IC50 (PTGER2 (EP2)) of 502 nM and an IC50 (PTGER4 (EP4)) of 480 nM.

For `CCc1cc(-c2cc(NCCc3ccc4c(c3C)OCCO4)ncn2)ccc1CC(=O)O` [Example 513, (2-Ethyl-4-{6-[2-(5-methyl-2,3-dihydro-benzo[1,4]dioxin-6-yl)-ethylamino]-pyrimidin-4-yl}-phenyl)-acetic acid], the IC50 (PTGER2 (EP2)) was 158 nM and the IC50 (PTGER4 (EP4)) was 347 nM.

`CCCc1cc(-c2cc(NCCc3ccc4c(c3)OCCO4)ncn2)ccc1CC(=O)O` [Example 527, (4-{6-[2-(2,3-Dihydro-benzo[1,4]dioxin-6-yl)-ethylamino]-pyrimidin-4-yl}-2-propyl-phenyl)-acetic acid] was tested, and the IC50 (PTGER2 (EP2)) was 892 nM and the IC50 (PTGER4 (EP4)) was 337 nM.

In the case of `COc1cc2c(cc1CCNc1cc(-c3ccc(CC(=O)O)c(OC)c3)ncn1)OCCO2` [Example 383, (2-Methoxy-4-{6-[2-(7-methoxy-2,3-dihydro-benzo[1,4]dioxin-6-yl)-ethylamino]-pyrimidin-4-yl}-phenyl)-acetic acid], the IC50 (PTGER2 (EP2)) is reported as 177 nM and the IC50 (PTGER4 (EP4)) is reported as 194 nM.

`CCCc1cc(-c2cc(NCCc3cc4c(cc3C)OCCO4)ncn2)ccc1CC(=O)O` [Example 526, (4-{6-[2-(7-Methyl-2,3-dihydro-benzo[1,4]dioxin-6-yl)-ethylamino]-pyrimidin-4-yl}-2-propyl-phenyl)-acetic acid] showed an IC50 (PTGER2 (EP2)) of 96 nM and an IC50 (PTGER4 (EP4)) of 269 nM.

For `CCOc1cc(-c2cc(NCCc3cc(F)c4sccc4c3)ncn2)ccc1C(=O)O` [Example 361, 2-Ethoxy-4-{6-[2-(7-fluoro-benzo[b]thiophen-5-yl)-ethylamino]-pyrimidin-4-yl}-benzoic acid], the IC50 (PTGER2 (EP2)) was 187 nM and the IC50 (PTGER4 (EP4)) was 116 nM.
